In data set [1] the test system is T. vaginalis Donne ATCC 30236 trophozoites. The data set is described as follows: Determination of IC50 values (anti-Trichomonas activity, trypan blue and XTT). It is filed as cell-based, Trichomonas vaginalis. The note with it: for pIC50: Trichomonas vaginalis, ATCC30236, T. vaginalis Donne ATCC 30236, 24 h, 37 °C, 0–10 µM, trypan blue and XTT, read-out: IC50 (viability of T. vaginalis trophozoites); for Enhancement of trichomonacidal effect in relation to MTZ: ratio of IC50 values vs MTZ; for Enhancement of trichomonacidal effect in relation to NTZ: ratio of IC50 values vs NTZ. As for the experimental part:
Figure 2 Determination of the IC50 values of AGR compounds on the culture of Trichomonas vaginalis. […] The trophozoites were incubated in the presence of the compounds for 24 h at 37 °C with different concentrations of each compound. Values represent the mean ± standard deviation of three independent experiments.
The T. vaginalis Donne ATCC 30236 strain was acquired from the ATCC (American Type Culture Collection). It was cultured axenically in trypticase–yeast extract–maltose medium (TYM, at pH 6.0) supplemented with 10% sterile horse serum (previously inactivated at 56 °C for 30 min) and incubated at 37 °C [42]. The trophozoites were analyzed via motility, morphology, and trypan blue dye exclusion assays (0.4%) under an optical microscope with a magnification of 40×. The parasites were cultured for 24 h at 37 °C, corresponding to the logarithmic growth phase, and were used for anti-Trichomonas assays.
The anti-Trichomonas activity was evaluated in 1.5 mL tubes, where 2.6 × 10^5 trophozoites/mL was treated with increasing concentrations (0–10 µM) of the selected compounds. The tubes were incubated at 37 °C for 24 h. Then the trypan blue dye exclusion and XTT assay tests were used for evaluations of cell viability, as previously described. […] The IC50 values were calculated using GraphPad Prism 8.0 Inc. software, Version 8.0.2 (263) (San Diego, CA, USA).

Data set [2] has as its system CaCo-2 cells. The data set is described as follows: In vitro cytotoxicity assay (XTT), Caco-2. Conditions: CC50 CaCo-2 / IC50 trophozoites. As for the experimental part:
(§1) Concentration–response curves for the viability of (A) Caco-2 and (B) HT29 cells treated with increasing concentrations of AGR compounds. […] Cell viability was determined using trypan blue dye exclusion (0.4%) (1:1, v/v) in a Neubauer chamber, as well as an XTT proliferation assay. Values represent the mean ± standard deviation of three independent experiments.
(§2) The Caco-2 and HT29 cell lines were provided by Luz Maria Rocha Ramirez from Hospital Infantil de México Federico Gómez, Secretaría de Salud. Cells were cultured in DMEM medium supplemented with 10% fetal bovine serum, 1% L-glutamine, and 1% penicillin/streptomycin at 37 °C in a 5% CO2 atmosphere. […] After incubation, cell viability was assessed using the XTT assay. The results are expressed as a percentage of viable cells compared with untreated cells. The cytotoxic concentration 50 (CC50) was calculated using GraphPad Prism 7.0 software. […] The assay was performed at least three times in triplicate. The selectivity index (SI) was calculated as SI = cells CC50/trophozoites IC50.

Data set [3] deals with HT29 cells. Description: In vitro cytotoxicity assay (XTT), HT29. Conditions: CC50 HT29 / IC50 trophozoites. As for the experimental part:
as §1, §2
On the technique in general: Tetrazolium dyes change colour on reduction, which living cells bring about.

Data set [4] deals with T. vaginalis trophozoites. The data set is described as follows: Kinetic growth curve of T. vaginalis in presence of compounds. It is filed as cell-based, Trichomonas vaginalis. Conditions: compound at its IC50, monitored up to 96 h. As for the experimental part: The trophozoites were incubated at the IC50 values for each compound. The viability and number of trophozoites were monitored at 6, 12, 18, 24, 48, 72, and 96 h with trypan blue (0.4%) (1:1, v/v) and XTT assays.
To understand the antiparasitic activities of the compounds against T. vaginalis cultures, we produced a curve of the kinetic growth of T. vaginalis as a function of time. […] Trophozoites were observed via light microscopy, and their growth and viability were evaluated at 6, 12, 24, 48, 72, and 96 h.

Data set [5] can be described thus: In vitro cytotoxicity assay (XTT), Caco-2. Conditions: human. As for the experimental part: as §1, §2
Data set [6] is described as follows: In vitro cytotoxicity assay (XTT), HT29. Conditions: human. As for the experimental part:
as §1, §2

Data set [7] has as its system T. vaginalis trophozoites (metabolic gene transcripts). The data set is described as follows: Relative gene expression of T. vaginalis in presence of compounds (RT-qPCR, 2^-ΔΔCt, PK reference gene). It is filed as cell-based, Trichomonas vaginalis. The note with it: 24 h at IC50 concentration; for Increase of PFK transcripts: vs untreated control. As for the experimental part: The main carbon and energy source for T. vaginalis is the fermentative carbohydrate metabolism. We sought to determine whether the death of T. vaginalis is related to changes in its metabolic genes. A gene expression assay based on RT-qPCR was performed to evaluate the transcription levels of several genes in T. vaginalis trophozoites that were incubated for 24 h at the IC50 concentration for each compound.
To evaluate the expression levels of the genes involved in the metabolism of T. vaginalis in the absence and presence of trichomonacidal compounds, the genetic expression levels of 15 genes were analyzed by means of real-time RT-qPCR. To this end, genes encoding enzymes involved in essential metabolic pathways for cell survival, such as glycolysis, the pentose phosphate pathway, structural proteins, and redox maintenance, were identified using the GenBank database (https://www.ncbi.nlm.nih.gov/genbank/ accessed on 15 January 2023) (Table 3).
The total RNA from trophozoites in the absence and presence of the compound was extracted using TRIzol® Reagent (Invitrogen, Carlsbad, CA, USA) according to the manufacturer’s instructions. The quality of RNA was assessed at 260/280 nm, and the integrity was assessed by 2.0% (w/v) agarose gel electrophoresis. For synthesis of the cDNA, samples were treated with 1 U of DNAase I enzyme (Thermo Fisher Scientific, Waltham, MA, USA). cDNA was synthesized using the primers Oligo (dT) 18 (Thermo Fisher Scientific) and RevertAid reverse transcriptase (Thermo Fisher Scientific). All synthesized cDNAs were quantified and stored at −70 °C until use.
We evaluated the expression levels of genes involved in the metabolism of T. vaginalis trophozoites in the absence and presence of trichomonacidal compounds. The amplification of the specific PCR products and the specificity of the primers of the genes proposed in this study (Table 4) were determined using the Fast SYBR® Green Master Mix kit (Applied Biosystems, Foster City, CA, USA) in the StepOnePlusTM Real-Time PCR Systems platform (Life Technologies, Foster City, CA, USA), which was carried out according to the method previously reported by Gutiérrez-Cardona et al..
The relative changes in the expression levels of the target genes (PK, CK, PFK, ALDO, TPI, GAPDH, ENOL, G6PD, 6PGDH, TKT, TALDO, PFOR, NADH, ACT, and TUB) were analyzed by the 2^−ΔΔCt method, using the PK reference gene for normalization. The curve was fitted with GraphPad Prism 8 software (GraphPad Software Inc., La Jolla, CA, USA), and statistical analysis was performed. ANOVA and the Tukey–Kramer test were used to evaluate the relative change in expression after normalization. Three replicates were included for each treatment, and all reactions were performed in triplicate.
For orientation: In qPCR the cycle at which signal appears reflects the starting amount.

The mark [8] stands for this setting: Caco-2, CaCo-2 CC50, 48 h, 0–500 µM, XTT.
[9] abbreviates: HT29 cells, HT29 CC50, 48 h, 0–500 µM, XTT.

Experimental findings from article PMC11173628, “Imidazole Carbamates as a Promising Alternative for Treating Trichomoniasis: In Vitro Effects on the Growth and Gene Expression of Trichomonas vaginalis” (Molecules, 2024) are described below.

The structures appear in SMILES notation. pIC50: −log10 of the molar value. “Also recorded” adds a separate entry of the source.

As for `CC(=O)Oc1ccccc1C(=O)Nc1ncc([N+](=O)[O-])s1` [NTZ, nitazoxanide, reference compound], the pIC50 (commonly the negative decadic logarithm of the IC50, by convention in mol/L) in data set [1] is 5.18. Further, the “CaCo-2 SI (CC50/IC50)” value in data set [2] is reported as 87.6. For the same molecule, in data set [3], the “HT29 SI (CC50/IC50)” value is listed as 95.7.

Take `Cc1ncc([N+](=O)[O-])n1CCOC(=O)NC1CCCCC1` [AGR-1]: in data set [1], the pIC50 is 6.17, the “Enhancement of trichomonacidal effect in relation to MTZ” value (shortened to “Enhancement … to MTZ”) is on record as “fivefold” and the “Enhancement of trichomonacidal effect in relation to NTZ” value (from here on “Enhancement … to NTZ”) is listed as 10 fold. For the same molecule, the “Effect on kinetic growth curve of T. vaginalis” value (“Effect on kinetic growth curve” for short) in data set [4] is “more significant delay in the logarithmic and stationary phases”. In addition, the CC50 (as a rule, the concentration giving 50% cytotoxicity) at 48 h in data set [5] (setting [8]) is 650 µM. Also, in data set [2], the “CaCo-2 SI (CC50/IC50)” value is 970.0. Besides, in data set [6] (setting [9]), half-maximal cytotoxicity (CC50 at 48 h) was put at 532 µM. Besides, the “HT29 SI (CC50/IC50)” value in data set [3] worked out at 794. In addition, in data set [7], the “Effect on ALDO expression” value is listed as “increased”, the “Expression of NADH oxidase gene” value is “decreased”, the “Overexpression of PFOR” value was determined as 11 fold and the “Increase of PFK transcripts” value was 1.2 fold.

`Cc1ncc([N+](=O)[O-])n1CCOC(=O)Nc1ccc(F)cc1` [AGR-4]: the pIC50 in data set [1] was 6.02. In addition, the “Effect on kinetic growth curve” value in data set [4] was “more significant delay in the logarithmic and stationary phases; also recorded: inhibited the growth of the parasite to a greater degree”. The CC50 at 48 h in data set [5] (setting [8]) was 510 µM. The “CaCo-2 SI (CC50/IC50)” value in data set [2] is 531.2. This molecule had a CC50 at 48 h in data set [6] (setting [9]) of 593 µM. The “HT29 SI (CC50/IC50)” value in data set [3] was 617. In data set [7], the “Decrease in the expression of PFOR” value was 1.5 fold, the “Effect on ALDO expression” value was “reduced”, the “Effect on GAPDH expression” value is given as “reduced” and the “Effect on PFK expression” value is reported as “negatively affected”. In data set [7], the “Expression of NADH oxidase gene” value is “decreased”.

As to `Cc1ncc([N+](=O)[O-])n1CCO` [MTZ, metronidazole, reference compound], the negative logarithm of the IC50 (pIC50) in data set [1] was 5.51.

Turning to `Cc1ncc([N+](=O)[O-])n1CCOC(=O)Nc1ccc([N+](=O)[O-])cc1` [AGR-5], in data set [1], the pIC50 is 5.84. The molecule also had a CC50 at 48 h in data set [5] (Caco-2) of 580 µM. The “CaCo-2 SI (CC50/IC50)” value in data set [2] came out at 400. In data set [6], this molecule registered a CC50 at 48 h of 560 µM. Besides, the “HT29 SI (CC50/IC50)” value in data set [3] came out at 386. In data set [7], the “Effect on PFK expression” value is “negatively affected”, the “Expression of NADH oxidase gene” value is “decreased” and the “Overexpression of PFOR” value worked out at 2.5 fold.

For `Cc1ncc([N+](=O)[O-])n1CCOC(=O)Nc1ccc(Cl)cc1` [AGR-3], in data set [1], the pIC50 was 6.19, the “Enhancement … to MTZ” value was “fivefold” and the “Enhancement … to NTZ” value is listed as 10 fold. The half-maximal cytotoxic concentration (CC50) at 48 h in data set [5] (setting [8]) was determined as 523 µM. The “CaCo-2 SI (CC50/IC50)” value in data set [2] stood at 817.1. In addition, the CC50 at 48 h in data set [6] (setting [9]) is 660 µM. For the same molecule, in data set [3], the “HT29 SI (CC50/IC50)” value was greater than 1000. Further, in data set [7], the “Effect on ALDO expression” value was “reduced”, the “Effect on GAPDH expression” value is given as “reduced”, the “Effect on PFK expression” value was “negatively affected” and the “Overexpression of PFOR” value stood at 7.5 fold.

For the molecule `Cc1ncc([N+](=O)[O-])n1CCOC(=O)Nc1ccccc1` [AGR-2], in data set [1], the pIC50 was 6.40, the “Enhancement … to MTZ” value is on record as 8 fold and the “Enhancement … to NTZ” value amounted to 16 fold. Further, the “Effect on kinetic growth curve” value in data set [4] is “more significant delay in the logarithmic and stationary phases”. Moreover, the CC50 at 48 h in data set [5] (setting [8]) is 560 µM. The “CaCo-2 SI (CC50/IC50)” value in data set [2] is given as greater than 1000. Moreover, half-maximal cytotoxicity in data set [6] (setting [9]) (CC50 at 48 h) was put at 730 µM. The “HT29 SI (CC50/IC50)” value in data set [3] was greater than 1000. In data set [7], the “Effect on ALDO expression” value is on record as “reduced”, the “Effect on GAPDH expression” value was “reduced”, the “Expression of NADH oxidase gene” value is reported as “decreased” and the “Overexpression of PFOR” value is reported as 7.5 fold. Also, the “Increase of PFK transcripts” value in data set [7] was 1.5 fold.
